From ChEMBL document CHEMBL1147543, “Styrylheterocycles as a novel class inhibitor of cyclooxygenase-2-mediated prostaglandin E(2) production” (Bioorg Med Chem Lett, 2004) come the findings set out here.

A value given as a limit tells only on which side of the number the result lay.

This assay concerns RAW264.7. Nature of the assay: Inhibitory effect on PGE-2 production in LPS-stimulated RAW264.7 cells. It counts as functional, cell-based. Particulars: Mus musculus.
`COc1cc(/C=C/c2cc(OC)cc(OC)c2)cc(OC)c1` returned a half-inhibitory concentration (IC50) of more than 33.3 µM.
Under `COc1cc(/C=C/c2cc(OC)c(OC)cc2OC)cc(OC)c1` stands 7.4 µM; under `Oc1ccc(/C=C/c2cc(O)cc(O)c2)cc1` [RESVERATROL], 4 µM.
